Species: Rattus norvegicus
Assay: DrugMatrix - Regimen: Daily Repeat
Assay type: toxicity, organism-based, Sprague-Dawley
Design: regimen Daily Repeat, gender Male, age 6-8 weeks
Settings: in vivo, po, route oral GAVAGE, vehicle .5 % CMC; for BASOPHIL / EOSINOPHIL / ERYTHROCYTE COUNT / HEMATOCRIT / HEMOGLOBIN / LEUKOCYTE COUNT / LYMPHOCYTE / MEAN CORPUSCULAR HEMOGLOBIN / MEAN CORPUSCULAR HEMOGLOBIN CONCENTRATION / MEAN CORPUSCULAR VOLUME / MONOCYTE / NEUTROPHIL / PLATELET COUNT: tissue Blood; for ALANINE AMINOTRANSFERASE / ALBUMIN / ALKALINE PHOSPHATASE / ASPARTATE AMINOTRANSFERASE / BLOOD UREA NITROGEN / CHLORIDE / CHOLESTEROL / CREATINE PHOSPHOKINASE / CREATININE / GLUCOSE / PHOSPHORUS / POTASSIUM / SODIUM / TOTAL BILIRUBIN / TOTAL PROTEIN: tissue Plasma
[1] = 0 mg/kg, 72 h, dose level Control, time 3 day
[2] = 0 mg/kg, 120 h, dose level Control, time 5 day
[3] = 3 mg/kg, 72 h, dose level Low, time 3 day
[4] = 3 mg/kg, 120 h, dose level Low, time 5 day

`O=C1CCC(N2C(=O)c3ccccc3C2=O)C(=O)N1` (configuration not stated) [THALIDOMIDE] was tested, and the BASOPHIL [1] was 1.52%, the EOSINOPHIL [1] was 0.98% and the “ERYTHROCYTE COUNT” value [1] was 6.96 x10E6/uL. For the same compound, the HEMATOCRIT [1] was 44.65%, the HEMOGLOBIN [1] was 13.62 G/DL and the “LEUKOCYTE COUNT” value [1] was 9.83 x10E3/uL. The LYMPHOCYTE [1] was 76.48%, the “MEAN CORPUSCULAR HEMOGLOBIN” value [1] was 19.57 pg and the “MEAN CORPUSCULAR HEMOGLOBIN CONCENTRATION” value [1] was 30.47 G/DL. The “MEAN CORPUSCULAR VOLUME” value [1] was 64.22 fL, the MONOCYTE [1] was 2.13% and the NEUTROPHIL [1] was 18.6%. The “PLATELET COUNT” value [1] was 1217.17 x10E3/uL, the “ALANINE AMINOTRANSFERASE” value [1] was 41 u/L and the ALBUMIN [1] was 3.77 G/DL. For the same compound, the “ALKALINE PHOSPHATASE” value [1] was 411.83 u/L, the “ASPARTATE AMINOTRANSFERASE” value [1] was 62.83 u/L and the “BLOOD UREA NITROGEN” value [1] was 15.17 mg/dL. The CHLORIDE [1] was 104.33 MEQ/L, the CHOLESTEROL [1] was 71.17 mg/dL and the “CREATINE PHOSPHOKINASE” value [1] was 123.5 u/L. It also gave a CREATININE [1] of 0.55 mg/dL, a GLUCOSE [1] of 182.67 mg/dL and a PHOSPHORUS [1] of 11.23 mg/dL. The POTASSIUM [1] was 7.03 MEQ/L, the SODIUM [1] was 148 MEQ/L and the “TOTAL BILIRUBIN” value [1] was 0.57 mg/dL. The “TOTAL PROTEIN” value [1] was 6.85 G/DL, the BASOPHIL [2] was 1.35% and the EOSINOPHIL [2] was 0.43%. The “ERYTHROCYTE COUNT” value [2] was 6.96 x10E6/uL, the HEMATOCRIT [2] was 44.35% and the HEMOGLOBIN [2] was 13.98 G/DL. For the same compound, the “LEUKOCYTE COUNT” value [2] was 9.45 x10E3/uL, the LYMPHOCYTE [2] was 80.83% and the “MEAN CORPUSCULAR HEMOGLOBIN” value [2] was 20.1 pg. For the same compound, the “MEAN CORPUSCULAR HEMOGLOBIN CONCENTRATION” value [2] was 31.52 G/DL, the “MEAN CORPUSCULAR VOLUME” value [2] was 63.72 fL and the MONOCYTE [2] was 2.37%. For the same compound, the NEUTROPHIL [2] was 14.05%, the “PLATELET COUNT” value [2] was 1298 x10E3/uL and the “ALANINE AMINOTRANSFERASE” value [2] was 42.17 u/L. The ALBUMIN [2] was 3.77 G/DL, the “ALKALINE PHOSPHATASE” value [2] was 419 u/L and the “ASPARTATE AMINOTRANSFERASE” value [2] was 66.67 u/L. For the same compound, the “BLOOD UREA NITROGEN” value [2] was 16.67 mg/dL, the CHLORIDE [2] was 103.17 MEQ/L and the CHOLESTEROL [2] was 66.33 mg/dL. For the same compound, the “CREATINE PHOSPHOKINASE” value [2] was 148.33 u/L, the CREATININE [2] was 0.58 mg/dL and the GLUCOSE [2] was 196.83 mg/dL. The PHOSPHORUS [2] was 11.8 mg/dL, the POTASSIUM [2] was 6.47 MEQ/L and the SODIUM [2] was 148.33 MEQ/L. For the same compound, the “TOTAL BILIRUBIN” value [2] was 0.53 mg/dL, the “TOTAL PROTEIN” value [2] was 6.77 G/DL and the BASOPHIL [3] was 1.53%. The EOSINOPHIL [3] was 0.27%, the “ERYTHROCYTE COUNT” value [3] was 6.9 x10E6/uL and the HEMATOCRIT [3] was 43.27%. The HEMOGLOBIN [3] was 13.43 G/DL, the “LEUKOCYTE COUNT” value [3] was 12.1 x10E3/uL and the LYMPHOCYTE [3] was 84.1%. For the same compound, the “MEAN CORPUSCULAR HEMOGLOBIN” value [3] was 19.47 pg, the “MEAN CORPUSCULAR HEMOGLOBIN CONCENTRATION” value [3] was 31.03 G/DL and the “MEAN CORPUSCULAR VOLUME” value [3] was 62.73 fL. The MONOCYTE [3] was 2.13%, the NEUTROPHIL [3] was 11.37% and the “PLATELET COUNT” value [3] was 1452.67 x10E3/uL. For the same compound, the “ALANINE AMINOTRANSFERASE” value [3] was 33 u/L, the ALBUMIN [3] was 3.63 G/DL and the “ALKALINE PHOSPHATASE” value [3] was 276 u/L. The “ASPARTATE AMINOTRANSFERASE” value [3] was 53.33 u/L, the “BLOOD UREA NITROGEN” value [3] was 11 mg/dL and the CHLORIDE [3] was 103 MEQ/L. For the same compound, the CHOLESTEROL [3] was 57.67 mg/dL, the “CREATINE PHOSPHOKINASE” value [3] was 135.33 u/L and the CREATININE [3] was 0.5 mg/dL. For the same compound, the GLUCOSE [3] was 177.33 mg/dL, the PHOSPHORUS [3] was 12.77 mg/dL and the POTASSIUM [3] was 6.87 MEQ/L. For the same compound, the SODIUM [3] was 148.67 MEQ/L, the “TOTAL BILIRUBIN” value [3] was 0.33 mg/dL and the “TOTAL PROTEIN” value [3] was 6.27 G/DL. The BASOPHIL [4] was 2.03%, the EOSINOPHIL [4] was 0.3% and the “ERYTHROCYTE COUNT” value [4] was 6.85 x10E6/uL. For the same compound, the HEMATOCRIT [4] was 42.57%, the HEMOGLOBIN [4] was 13.47 G/DL and the “LEUKOCYTE COUNT” value [4] was 11.43 x10E3/uL. The LYMPHOCYTE [4] was 80.43%, the “MEAN CORPUSCULAR HEMOGLOBIN” value [4] was 19.63 pg and the “MEAN CORPUSCULAR HEMOGLOBIN CONCENTRATION” value [4] was 31.7 G/DL. For the same compound, the “MEAN CORPUSCULAR VOLUME” value [4] was 62.13 fL, the MONOCYTE [4] was 3.03% and the NEUTROPHIL [4] was 13.67%. The “PLATELET COUNT” value [4] was 1535.33 x10E3/uL, the “ALANINE AMINOTRANSFERASE” value [4] was 37 u/L and the ALBUMIN [4] was 3.47 G/DL. For the same compound, the “ALKALINE PHOSPHATASE” value [4] was 320 u/L, the “ASPARTATE AMINOTRANSFERASE” value [4] was 57 u/L and the “BLOOD UREA NITROGEN” value [4] was 12 mg/dL. For the same compound, the CHLORIDE [4] was 102.67 MEQ/L, the CHOLESTEROL [4] was 62.33 mg/dL and the “CREATINE PHOSPHOKINASE” value [4] was 138 u/L. For the same compound, the CREATININE [4] was 0.5 mg/dL, the GLUCOSE [4] was 187.67 mg/dL and the PHOSPHORUS [4] was 11.93 mg/dL. For the same compound, the POTASSIUM [4] was 6.03 MEQ/L, the SODIUM [4] was 146.33 MEQ/L and the “TOTAL BILIRUBIN” value [4] was 0.3 mg/dL. For the same compound, the “TOTAL PROTEIN” value [4] was 6.13 G/DL.

— ChEMBL document CHEMBL3885881, “DrugMatrix”
